Data as given in patent US6884421B2, “Pharmaceutical composition for diabetic nephropathy” (Council of Scientific and Industrial Research, priority 2002, dated 2005).
Marks after values point to notes of the source that are not given here.

Experiments:
[1] = system: diabetic rats; experiment: Glomerular Filtration Rate from urinary and plasma creatinine in streptozotocin diabetic rats; assay type: in vivo, Male Wistar rats; settings: end of fifth week, mean ±SEM
From the text: Urinary creatinine is estimated by alkaline picrate reagent method. […] The plasma is deproteinsed using tungstic acid prior to creatinine estimation.
The formula used is [formula]

[2] = system: diabetic rats; experiment: Urinary protein excretion by TCA precipitation method in streptozotocin diabetic rats; assay type: in vivo, Male Wistar rats; settings: end of fifth week
Method: Urinary protein is determined at the end of fifth week by TCA precipitation method and the absorbance is measured at 660 nm.
Diabetes is induced in Male Wistar rats weighing between 120 g using streptozotocin at 55 mg/kg body weight and the rats are fed with wheat bran (1 to 5%), guar gum (1 to 2.5%) and butyric acid in the range of 1, 2, 4, 6, 8 and 10 mg/kg body weight/day in drinking water. After 4 days measuring fasting blood glucose level in the plasma and urinary sugar levels assessed the diabetic status.
Diabetes is induced in Male Wistar rats weighing between 120 g using streptozotocin at 55 mg/kg body weight and the rats are fed with wheat bran (1 to 5%), guar gum (1 to 2.5%) and butyric acid in the range of 250, 500 and 750 mg/kg body weight/day in drinking water. After 4 days measuring fasting blood glucose level in the plasma and urinary sugar levels assessed the diabetic status.
Urinary protein is determined at the end of fifth week by TCA precipitation method and the absorbance is measured at 660 nm (Table 2).

[3] = FFD-250: fibre fed (wheat bran, guar gum) diabetic rats, 250 mg butyric acid/kg body weight/day in drinking water
[4] = FFD-500: fibre fed (wheat bran, guar gum) diabetic rats, 500 mg butyric acid/kg body weight/day in drinking water
[5] = FFD-750: fibre fed (wheat bran, guar gum) diabetic rats, 750 mg butyric acid/kg body weight/day in drinking water
[6] = SFD-250: starch fed diabetic rats, 250 mg butyric acid/kg body weight/day in drinking water
[7] = SFD-500: starch fed diabetic rats, 500 mg butyric acid/kg body weight/day in drinking water
[8] = SFD-750: starch fed diabetic rats, 750 mg butyric acid/kg body weight/day in drinking water

SMILES: CCCC(=O)O [butyric acid]
- GFR [1, 3]: 10.56 ± 1.05^b mL/min
- GFR [1, 4]: 9.23 ± 1.09^b mL/min
- GFR [1, 5]: 11.64 ± 1.27^b mL/min
- GFR [1, 6]: 15.99 ± 1.30 mL/min
- GFR [1, 7]: 15.60 ± 1.21 mL/min
- GFR [1, 8]: 15.23 ± 1.04 mL/min
- Urinary protein [2, 3]: 104.07 ± 11.31^b mg/24 h
- Urinary protein [2, 4]: 88.82 ± 9.82^b mg/24 h
- Urinary protein [2, 5]: 90.37 ± 9.14^b mg/24 h
- Urinary protein [2, 6]: 126.77 ± 9.82 mg/24 h
- Urinary protein [2, 7]: 124.86 ± 6.81^b mg/24 h
- Urinary protein [2, 8]: 115.37 ± 10.91 mg/24 h
